Measured values reported in ChEMBL document CHEMBL3259558, “Identification of amides derived from 1H-pyrazolo[3,4-b]pyridine-5-carboxylic acid as potent inhibitors of human nicotinamide phosphoribosyltransferase (NAMPT)” (Bioorg Med Chem Lett, 2013).
In brackets after ≈: the same amount, converted by molar mass. Activity calls are given as the source filed them. The calls are words filed in the database; no cut-off is given here.

Tests used:
[1] = Fraction unbound in mouse plasma at 5 uM by LC-MS/MS analysis; assay type: ADME, cell-free
[2] = Ratio of drug level in retina to plasma of Sprague-Dawley rat at 30 mg/kg, po qd for 2 days measured 6.5 hrs after last dose
A2780 [3] = assay: Antitumor activity against human A2780 cells xenografted in NCR nude mouse assessed as tumor regression at 100 mg/kg, po qd measured for 5 to 15 days; assay type: functional, organism-based; set-up: dose 100 mg/kg
[4] = Volume of distribution at steady state in NCR nude mouse at 5 mg/kg, iv; assay type: ADME, organism-based; set-up: dose 5 mg/kg, route intravenous; conditions: in vivo, read-out: Vdss
[5] = Drug uptake in Sprague-Dawley rat retina at 30 mg/kg, po single dose measured 1 hr after dose
[6] = Antiproliferative activity against human HT1080 cells assessed as cell viability after 96 hrs by CyQuant staining-based assay; assay type: functional; conditions: HT-1080, 96 h
PC-3 [7] = assay: Antiproliferative activity against human PC3 cells assessed as cell viability after 96 hrs by CyQuant staining-based assay; assay type: functional; conditions: PC-3, 96 h
[8] = Antiproliferative activity against human MIAPaCa2 cells assessed as cell viability after 96 hrs by CyQuant staining-based assay; assay type: functional; conditions: MIA PaCa-2, 96 h
A2780 [9] = assay: Antiproliferative activity against human A2780 cells assessed as cell viability after 72 hrs by SRB assay in presence of nitotinamide mononucleotide; assay type: functional, cell-based
[10] = Octanol-PBS buffer distribution coefficient, log D of the compound at pH 7.4 by shake flask method; assay type: physicochemical
[11] = Antiproliferative activity against mouse B16F10 cells assessed as cell viability after 96 hrs by CyQuant staining-based assay; assay type: functional; conditions: B16-F10, 96 h
[12] = Cytotoxicity against African green monkey COS7 cells assessed as cell viability after 96 hrs by CyQuant staining-based assay; conditions: Chlorocebus aethiops, COS-7, 96 h
[13] = Cytotoxicity against African green monkey COS1 cells assessed as cell viability after 96 hrs by CyQuant staining-based assay; conditions: Chlorocebus aethiops, COS-1, 96 h
A2780 [14] = assay: Antiproliferative activity against human A2780 cells assessed as cell viability after 72 hrs by SRB assay; assay type: functional, cell-based; conditions: A2780, 72 h
[15] = Antiproliferative activity against mouse KPP cells assessed as cell viability after 96 hrs by CyQuant staining-based assay; assay type: functional
[16] = Half life in NCR nude mouse at 100 mg/kg, po; assay type: ADME, organism-based; set-up: dose 100 mg/kg, route oral; conditions: in vivo
HCT-116 = assay: Antiproliferative activity against human HCT116 cells assessed as cell viability after 96 hrs by CyQuant staining-based assay; assay type: functional; conditions: HCT-116, 96 h
PC-3 [17] = assay: Cellular uptake in human PC3 cells at 200 nM; assay type: ADME, cell-based; conditions: pc-3, 0.2 µM
Tumour = assay: Reduction of NAD level in tumor of NCR nude mouse xenografted with human A2780 cells at 100 mg/kg, po qd measured after day-5 dose for 1 to 24 hrs relative to vehicle-treated control; assay type: functional, organism-based; set-up: dose 100 mg/kg
[18] = Dissociation constant, pKa of the compound; assay type: physicochemical
[19] = Antiproliferative activity against human Calu6 cells assessed as cell viability after 96 hrs by CyQuant staining-based assay; assay type: functional; conditions: Calu-6, 96 h
[20] = target: Nicotinamide phosphoribosyltransferase (Rattus norvegicus, UniProt Q80Z29); assay: Inhibition of rat NAMPT after 30 mins by mass spectrometry-based analysis
[21] = Drug uptake in Sprague-Dawley rat retina at 30 mg/kg, po single dose measured 6.5 hrs after dose
Mus musculus = assay: Toxicity in NCR nude mouse xenografted with human A2780 cells assessed as decrease in body weight at 100 mg/kg, po qd measured after 5 days; assay type: organism-based; set-up: dose 100 mg/kg, route oral; conditions: in vivo, 120 h
[22] = Half life in NCR nude mouse at 5 mg/kg, iv; assay type: ADME, organism-based; set-up: dose 5 mg/kg, route intravenous; conditions: in vivo
[23] = Aqueous solubility of the compound in PBS at pH 7.2 by LC/CLND analysis; assay type: physicochemical
[24] = Antiproliferative activity against mouse KPR cells assessed as cell viability after 96 hrs by CyQuant staining-based assay; assay type: functional
[25] = Cmax in NCR nude mouse at 100 mg/kg, po; assay type: ADME, organism-based; set-up: dose 100 mg/kg, route oral; conditions: in vivo
[26] = Cellular uptake in mouse KPP cells at 200 nM; assay type: ADME, cell-based; conditions: 0.2 µM
[27] = Antiproliferative activity against dog DH82 cells assessed as cell viability after 96 hrs by CyQuant staining-based assay; assay type: functional; conditions: Canis lupus familiaris, DH82, 96 h
[28] = target: T1, Nicotinamide phosphoribosyltransferase (Mus musculus, UniProt Q99KQ4); assay: Inhibition of mouse NAMPT after 30 mins by mass spectrometry-based analysis
[29] = Antiproliferative activity against dog D17 cells assessed as cell viability after 96 hrs by CyQuant staining-based assay; assay type: functional; conditions: Canis lupus familiaris, D17, 96 h
[30] = Antiproliferative activity against dog A72 cells assessed as cell viability after 96 hrs by CyQuant staining-based assay; assay type: functional; conditions: Canis lupus familiaris, A-72, 96 h
[31] = Cytotoxicity against rhesus monkey RF/6A cells assessed as cell viability after 96 hrs by CyQuant staining-based assay; conditions: Macaca mulatta
[32] = Inhibition of C-terminal His-6-tagged cynomolgus monkey NAMPT expressed in Escherichia coli (DE3)-RIL cells after 30 mins by mass spectrometry-based analysis; set-up: species or system Macaca fascicularis
PC-3 [33] = assay: Cellular uptake in human PC3 cells at 1000 nM; assay type: ADME, cell-based; conditions: pc-3, 1 µM
[34] = Cellular uptake in mouse KPP cells at 1000 nM; assay type: ADME, cell-based; conditions: 1 µM
[35] = Tmax in NCR nude mouse at 100 mg/kg, po; assay type: ADME, organism-based; set-up: dose 100 mg/kg, route oral; conditions: in vivo
[36] = Ratio of drug level in retina to plasma of Sprague-Dawley rat at 30 mg/kg, po qd for 2 days measured 1 hr after last dose
[37] = target: T1, Nicotinamide phosphoribosyltransferase; assay: Inhibition of NAMPT in mouse cells assessed as reduction in NAD level after 48 hrs by mass spectrometry; assay type: cell-based
[38] = Inhibition of C-terminal His-6-tagged dog NAMPT expressed in Escherichia coli (DE3)-RIL cells after 30 mins by mass spectrometry-based analysis; set-up: species or system Canis lupus familiaris
[39] = Apparent permeability from apical to basolateral side in MDCK cells at 10 uM by LC-MS/MS analysis; assay type: ADME, cell-based, Canis lupus familiaris; conditions: dog
[40] = Clearance in NCR nude mouse at 5 mg/kg, iv; assay type: ADME, organism-based; set-up: dose 5 mg/kg, route intravenous; conditions: in vivo
[41] = Ratio of drug level in retina to plasma of Sprague-Dawley rat at 30 mg/kg, po qd for 2 days measured 6.5 hrs after last dose in presence of nicotinic acid
[42] = Ratio of drug level in retina to plasma of Sprague-Dawley rat at 30 mg/kg, po qd for 2 days measured 1 hr after last dose in presence of nicotinic acid
[43] = Drug uptake in Sprague-Dawley rat retina at 30 mg/kg, po qd for 2 days measured 6.5 hrs after last dose in presence of nicotinic acid; assay type: ADME, organism-based; set-up: dose 30 mg/kg, route oral; conditions: read-out: Drug uptake
[44] = Drug uptake in Sprague-Dawley rat retina at 30 mg/kg, po qd for 2 days measured 1 hr after last dose in presence of nicotinic acid; assay type: ADME, organism-based; set-up: dose 30 mg/kg, route oral; conditions: read-out: Drug uptake

T1 sequence (Q99KQ4 whole entry): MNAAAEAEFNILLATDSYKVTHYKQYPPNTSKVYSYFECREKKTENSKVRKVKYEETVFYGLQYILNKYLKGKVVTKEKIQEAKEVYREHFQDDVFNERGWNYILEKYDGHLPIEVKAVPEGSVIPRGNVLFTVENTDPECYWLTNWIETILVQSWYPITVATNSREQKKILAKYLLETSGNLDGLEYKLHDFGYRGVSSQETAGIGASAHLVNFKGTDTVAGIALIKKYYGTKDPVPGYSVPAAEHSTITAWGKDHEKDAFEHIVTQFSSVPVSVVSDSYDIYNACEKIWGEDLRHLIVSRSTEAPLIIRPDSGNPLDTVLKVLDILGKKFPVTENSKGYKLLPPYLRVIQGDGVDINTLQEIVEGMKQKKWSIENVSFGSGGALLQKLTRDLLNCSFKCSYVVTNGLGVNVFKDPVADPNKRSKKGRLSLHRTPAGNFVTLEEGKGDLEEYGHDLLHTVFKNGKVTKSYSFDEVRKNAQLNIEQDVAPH
Sequence of Nicotinamide phosphoribosyltransferase (Rattus norvegicus, UniProt Q80Z29) (Q80Z29 whole entry): as the sequence (Q99KQ4 whole entry) above, with T335S, N439T, I484M counted along it

O=C(NCc1ccc(S(=O)(=O)c2cccc(C(F)(F)F)c2)cc1)c1cnc2[nH]ncc2c1
fraction unbound at 5 µM [1]: 0.013 | Kp at 6.5 h [2]: 0.093 | Activity (A2780 [3]): Active | Vd [4]: 0.45 L/kg | concentration at 1 h [5]: 0.94 µM | IC50 [6]: 0.009 µM | IC50 (PC-3 [7]): 0.009 µM | IC50 [8]: 0.03 µM | inhibition (A2780 [9]): inactive | logD [10]: 3.4 | IC50 [11]: > 1 µM | IC50 [12]: 0.863 µM | IC50 [13]: 0.501 µM | IC50 (A2780 [14]): 0.0043 µM | IC50 [15]: 0.775 µM | half-life [16]: 3.4 h | IC50 (HCT-116): 0.008 µM | Drug uptake (PC-3 [17]): 10 nM | Activity (Tumour): Active | pKa [18]: < 2 | IC50 [19]: 0.021 µM | IC50 [20]: 0.035 µM | concentration at 6.5 h [21]: 0.68 µM | Activity (Mus musculus): Toxic | half-life [22]: 2.6 h | solubility [23]: 1.4 µM (≈ 0.645 µg/mL) | IC50 [24]: > 1 µM | Cmax [25]: 53 µM | Drug uptake [26]: 12 nM | IC50 [27]: 0.041 µM | IC50 [28]: 0.059 µM | IC50 [29]: 0.098 µM | IC50 [30]: 0.023 µM | IC50 [31]: 0.386 µM | IC50 [32]: 0.073 µM | Drug uptake (PC-3 [33]): 54 nM | Drug uptake [34]: 74 nM | Tmax [35]: 0.25 h | Kp at 1 h [36]: 0.071 | EC50 [37]: 0.07 µM | IC50 [38]: 0.022 µM | Papp A→B at 10 µM [39]: 110 nm/s | clearance [40]: 0.198 L/h/kg

O=C(NCc1ccc(S(=O)(=O)c2cc(F)cc(F)c2)cc1)c1ccc2nccn2c1
IC50 [6]: 0.002 µM | IC50 (PC-3 [7]): 0.003 µM | IC50 [8]: 0.007 µM | logD [10]: 3.2 | IC50 [11]: 0.071 µM | Kp at 6.5 h [41]: 0.3 | IC50 [12]: 0.009 µM | IC50 [15]: 0.016 µM | Drug uptake (PC-3 [17]): 9 nM | pKa [18]: 5.3 | IC50 [20]: 0.023 µM | IC50 [24]: 0.041 µM | Kp at 1 h [42]: 0.32 | Drug uptake [26]: 8 nM | IC50 [27]: 0.007 µM | concentration at 6.5 h [43]: 1.3 µM | IC50 [28]: 0.024 µM | IC50 [29]: 0.012 µM | IC50 [30]: 0.004 µM | IC50 [31]: 0.004 µM | IC50 [32]: 0.042 µM | Drug uptake (PC-3 [33]): 30 nM | Drug uptake [34]: 31 nM | EC50 [37]: 0.0013 µM | IC50 [38]: 0.007 µM | concentration at 1 h [44]: 1.9 µM
